Here are results for 23 compounds from patent publication US11970469B2 (Oxford University Innovation Limited, priority 2018, dated 2024).

What is called IC50 is the concentration at which inhibition is half-maximal.

Experiment [1] relates to DLD1 cells (ATCC CCL-221). Briefly: Cell viability assay, DLD-1 (CellTiter-Glo). The experiment is classed as cell-based. To be noted: DLD-1 cells; for effect on DLD-1 viability over the range of concentrations: 72 hour, 5, 10, 15, 20 μM (FIG. 1); for IC50: Homo sapiens, 72 h, dose response 5, 10, 15, 20 μM. As for the experimental part: DLD1 cells (ATCC CCL-221) are cultured in RPMI-1640 medium plus 10% foetal calf serum and 2 mM L-glutamine at 37° C. 5% CO2. Cells are plated onto white clear bottom 96-well plates (5000 cells/well in 200 μl media) and left to adhere overnight at 37° C., 5% CO2. Next day, test compound (1 μl at 200× concentration in 100% DMSO) is added to give final test compound concentration 1× in 0.5% DMSO. After 72 h of incubation at 37° C. 5% CO2, 20 μl CellTiter-Glo reagent (Promega G7572) is added into each well. Plates are incubated at room temperature with shaking for 30 min and then luminescence is read using a PheraStar plate reader. The concentration of compounds that decrease cell viability by 50% is calculated from dose response curves generated using Dotmatics data analysis software Results
(Cellular ATP, detected with luciferase, serves as a proxy for viable cell number.)

The subject of experiment [2] is RASG12D/CRAF FL. Briefly: BRET2 cell assay with BRET-based RAS biosensor (RAS-effector) in HEK293T. The note with it: 10 uM compound, 20 hours. On the procedure:
650,000 HEK293T were seeded in each well of a 6 well plate. 24 hours later, cells were transfected with an appropriated BRET-based RAS biosensor (i.e. RAS-effector) using Lipofectamine 2000 transfection reagent (Thermo-Fisher). Cells were detached 24 hours later and washed with PBS and seeded in a white 96 well plate (clear bottom, PerkinElmer, cat #6005181) in OptiMEM no phenol red medium (Life Technologies) complemented with 4% FBS. Cells were left for 4 hours at 37° C. before adding compounds. Stock compounds were held at 10 mM in 100% DMSO and diluted in OptiMEM no red phenol+4% FBS to reach 10× the final concentration (2% DMSO for each concentration). The final concentrations in the cells were 0, 5, 10 and 20 μM (therefore the intermediate 10× concentrations were 0, 50, 100 and 200 μM. 10 μL of 10× compounds were added in each well of the 96 well plate to 0, 5, 10 and 20 μM final concentrations (with final 0.2% DMSO each). Quadruplicates were performed for each point. Cells were left for an additional 20 hours at 37° C. before the BRET2 signal reading directly after addition of Coelenterazine 400a substrate (10 μM final) to cells (Cayman Chemicals, cat #16157). BRET2 reading was carried out on an Envision instrument (2103 Multilabel Reader, PerkinElmer) with the BRET2 Dual Emission optical module (515 nm±30 and 410 nm±80; PerkinElmer).
Background: Bioluminescence resonance energy transfer reports proximity on the nanometre scale.

In experiment [3] the target is GST-human KRas166 (G12V) GPPNHP (Homo sapiens, UniProt P01116, G12V). Briefly: KRas small-molecule screening by SPR (BIACORE T200). In kind it is binding. On the set-up: made in house; host or cells: E. coli C41(DE3); key: SPR response units (RU). To be noted: compounds at final concentration of 100 uM; immobilised KRAS166 (G12V) GPPNHP; no unit printed (method speaks of response units). As for the experimental part:
For SPR assays pGEX-KRAS(G12V) plasmid was transformed into E. coli C41(DE3). Bacterial cells were cultured at 37° C. to an OD600 of 0.6 and induced with IPTG (final 0.1 mM) at 18° C. over night. The GST fusion proteins were extracted from bacteria pellets after cell disruption in 140 mM NaCl, 2.7 mM KCl, 10 mM NaH2PO4, 1.8 mM KH2PO4, 1 mM EDTA, 2 mM MgCl2 pH 7.4 and purified by glutathione-sepharose column chromatography (GE Healthcare), eluting with 50 mM Tris-HCl pH8.0, 10 mM reduced glutathione, 1 mM DTT, 2 mM MgCl2. The eluted proteins were dialysed against 50 mM Tris-HCl pH8.0, 1 mM DTT, 2 mM MgCl2 and concentrated to 10 mg/ml using a Biomax-30 ULTRAFREE-15 centrifugal filter device (Millipore). Purified KRAS protein was loaded with GPPNHP as described elsewhere (Pacold et al., 2000). Loaded protein was then purified by gel filtration on a HiLoad Superdex-75 HR column (GE Healthcare) in 1×PBS pH7.4, 5 mM MgCl2 and concentrated for storage. Protocol for KRas small-molecule screening and affinity measurements by SPR
To a previously immobilized CM5 chip (GE Healthcare BR-1005-30) with anti GST antibody via amine coupling method, GST in channel 1 and GST-human KRas166 (G12V) GPPNHP in channel 2 were immobilised. GST was immobilised between 2,000 and 5,000 Response units. KRAS166 (G12V) was immobilized between 10,000 to 15,000 Response Units.
In a 96 well plate, compounds were diluted in […], 5 mM MgCl2 and 5% DMSO Buffer to a final concentration of 100 uM. DCAI was used as positive control. Experiment also included a solvent correction curve for 5% DMSO. Screening and evaluation of the protein immobilization and the compounds screening was done accordingly to the BIACORE T200 control and evaluation software.
Calculations for how many response units are required for a 1:1 ratio of compound/protein interaction are shown below. • Protein immobilisation: 10,000 RU; average fragment 300 Da in size. Rmax=(MWA/MWL)×RL×SM • MWA is the molecular weight of the analyte in Da • MWL is the molecular weight of the ligand in Da • RL is the immobilization level in RU • SM is the molar stoichiometry (assume 1:1) • Rmax=300/47,500×10,000×1 • Rmax=63 RU. BRET2 Cell Assay
(Surface plasmon resonance follows binding to a sensor surface in real time, without labels.)

As to `COc1cccc(-c2cccc(CC3(C(=O)NCCn4ccnc4)CCOCC3)c2)c1` [PPIN-2, reference compound], the “effect on DLD-1 viability over the range of concentrations” value in experiment [1] is recorded as “does not affect DLD-1 viability”. Take `COc1cccc(-c2ccc(Nc3ccc(CN(C)C)cc3)cc2)c1` [Example 1, N-(4-((dimethylamino)methyl)phenyl)-3′-methoxy-[1,1′-biphenyl]-4-amine]: the “BRET RASG12D/CRAF FL % Inhibition (10 uM)” value in experiment [2] is 24%. In experiment [3], this compound registered an SPR of 230. The compound further came in with an IC50 in experiment [1] of 5.3 µM.

As to `COc1cccc(-c2ccc(Nc3ccc(CN(C)C)cc3)c(OC)c2)c1` [Example 2, N-(4-((dimethylamino)methyl)phenyl)-3,3′-dimethoxy-[1,1′-biphenyl]-4-amine], the “BRET RASG12D/CRAF FL % Inhibition (10 uM)” value in experiment [2] is on record as 18%. This compound also returned an SPR in experiment [3] of 233. Moreover, the IC50 in experiment [1] was 7.2 µM. `COc1cccc(-c2ccc(Nc3cc(C)cc(C)c3)cc2)c1` [Example 9, N-(3,5-dimethylphenyl)-3′-methoxy-[1,1′-biphenyl]-4-amine]: the “BRET RASG12D/CRAF FL % Inhibition (10 uM)” value in experiment [2] is given as 2%. For the same compound, in experiment [3], the SPR came to 28. The like results for `COc1cccc(-c2ccc(Nc3cccc(CN4CC(C)OC(C)C4)c3)cc2)c1` (centres unmarked) [Example 12, N-(3-((2,6-dimethylmorpholino)methyl)phenyl)-3′-methoxy-[1,1′-biphenyl]-4-amine] were, in that order, 0% and 55.

For `O=C(NCC1COc2ccccc2O1)c1ccco1` (centres unmarked) [Abd-2, reference compound], in experiment [1], the “effect on DLD-1 viability over the range of concentrations” value was “does not affect DLD-1 viability”. `COc1cc(-c2ccc(Nc3ccc(CN(C)C)cc3)cc2)ccc1F` [Example 4, N-(4-((dimethylamino)methyl)phenyl)-4′-fluoro-3′-methoxy-[1,1′-biphenyl]-4-amine]: the “BRET RASG12D/CRAF FL % Inhibition (10 uM)” value in experiment [2] is listed as 24%. The compound further came in with an SPR in experiment [3] of 80. Take `COc1cccc(-c2ccc(Nc3ccc(CN(C)C)cc3)cn2)c1` [Example 16, N-(4-((dimethylamino)methyl)phenyl)-6-(3-methoxyphenyl)pyridin-3-amine]: the “BRET RASG12D/CRAF FL % Inhibition (10 uM)” value in experiment [2] turned out to be 0%. In experiment [3], this compound showed an SPR of 209. As to “N-(3-((2,6-dimethylmorpholino)methyl)phenyl)-3′-methoxy-[1,1′-biphenyl]-4-amine [Example 13]”, the “BRET RASG12D/CRAF FL % Inhibition (10 uM)” value in experiment [2] worked out at 9%. The same compound registered an SPR in experiment [3] of 43. `COc1cccc(-c2ccc(Nc3cccc(C(=O)NCC4CCNCC4)c3)cc2)c1` [Example 17, 3-((3′-methoxy-[1,1′-biphenyl]-4-yl)amino)-N-(piperidin-4-ylmethyl)benzamide] registered an SPR in experiment [3] of 396. In turn, `COc1cccc(-c2ccc(Nc3ccc(C(=O)NCC4CCN(Cc5ccccc5)CC4)cc3)cc2)c1` [Example 23, N-((1-benzylpiperidin-4-yl)methyl)-4-((3′-methoxy-[1,1′-biphenyl]-4-yl)amino)benzamide] came in with an SPR in experiment [3] of 99. For the compound `COc1cc(-c2ccc(Nc3ccc(CN(C)C)cc3)cc2)ccc1C` [Example 18, N-(4-((dimethylamino)methyl)phenyl)-3′-methoxy-4′-methyl-[1,1′-biphenyl]-4-amine], the “BRET RASG12D/CRAF FL % Inhibition (10 uM)” value in experiment [2] is recorded as 13%. The compound also came in with an SPR in experiment [3] of 119. Turning to `COc1cccc(-c2ccc(Nc3ccc(C(=O)NCC4CCNCC4)cc3)cc2)c1` [Example 20, 4-((3′-methoxy-[1,1′-biphenyl]-4-yl)amino)-N-(piperidin-4-ylmethyl)benzamide], the SPR in experiment [3] was 1426. With `COc1nc(-c2cccc3c2OCCO3)ccc1Nc1ccc(CN(C)C)cc1` [Abd-7, reference compound], in experiment [1], the IC50 is 8.2 µM. As for `COc1cc(F)cc(-c2ccc(Nc3ccc(CN(C)C)cc3)cc2)c1` [Example 6, N-(4-((dimethylamino)methyl)phenyl)-3′-fluoro-5′-methoxy-[1,1′-biphenyl]-4-amine], in experiment [2], the “BRET RASG12D/CRAF FL % Inhibition (10 uM)” value came out at 22%. Moreover, in experiment [3], the SPR is on record as 245.

With `COc1cc(C)cc(-c2ccc(Nc3ccc(CN(C)C)cc3)cc2)c1` [Example 7, N-(4-((dimethylamino)methyl)phenyl)-3′-methoxy-5′-methyl-[1,1′-biphenyl]-4-amine], the “BRET RASG12D/CRAF FL % Inhibition (10 uM)” value in experiment [2] came to 6%. In experiment [3], this compound showed an SPR of 264. The like results for `COc1cccc(-c2ccc(Nc3cc(C)cc(C)c3)c(OC)c2F)c1` [Example 8, N-(3,5-dimethylphenyl)-2-fluoro-3,3′-dimethoxy-[1,1′-biphenyl]-4-amine] were, in that order, 0% and 30. The like results for `COc1cccc(-c2ccc(Nc3cccc(CN(C)C)c3)c(OC)n2)c1` [Example 15, N-(3-((dimethylamino)methyl)phenyl)-2-methoxy-6-(3-methoxyphenyl)pyridin-3-amine] were, in that order, 35% and 84. On to `COc1cccc(-c2ccc(Nc3cc(CN(C)C)ccc3C)cc2)c1` [Example 11, N-(5-((dimethylamino)methyl)-2-methylphenyl)-3′-methoxy-[1,1′-biphenyl]-4-amine], for which the “BRET RASG12D/CRAF FL % Inhibition (10 uM)” value in experiment [2] stood at 1%. The SPR in experiment [3] stood at 69. `COc1cccc(-c2ccc(Nc3cc(C(=O)N(C)C)ccc3C)cc2)c1` [Example 10, 3-((3′-methoxy-[1,1′-biphenyl]-4-yl)amino)-N,N,4-trimethylbenzamide]: in experiment [2], the “BRET RASG12D/CRAF FL % Inhibition (10 uM)” value turned out to be 0%. Moreover, in experiment [3], the SPR is recorded as 28. `COc1cccc(-c2ccc(Nc3ccc(C(=O)NCC4CCN(C)CC4)cc3)cc2)c1` [Example 21, 4-((3′-methoxy-[1,1′-biphenyl]-4-yl)amino)-N-((1-methylpiperidin-4-yl)methyl)benzamide] returned an SPR in experiment [3] of 1583. Regarding `COc1cccc(-c2ccc(Nc3ccc(CN(C)C)cc3)c(OC)n2)c1` [Example 14, N-(4-((dimethylamino)methyl)phenyl)-2-methoxy-6-(3-methoxyphenyl)pyridin-3-amine], in experiment [2], the “BRET RASG12D/CRAF FL % Inhibition (10 uM)” value was 42%. The compound also registered an SPR in experiment [3] of 152.

As to `COc1cc(-c2ccc(Nc3ccc(CN(C)C)cc3)cc2)cc(F)c1F` [Example 5, N-(4-((dimethylamino)methyl)phenyl)-3′,4′-difluoro-5′-methoxy-[1,1′-biphenyl]-4-amine], the “BRET RASG12D/CRAF FL % Inhibition (10 uM)” value in experiment [2] turned out to be 33%. In experiment [3], this compound gave an SPR of 127.
